Laboratory results as given in PubChem BioAssay AID192 (DTP/NCI, 2004).
Several values for one entry are separate records, joined by “and”; a condition that tells them apart may be missing. Equal entries are not always repeated. Toxic doses and inconclusive results are not listed.

Test system: BDF1 mice, B16 melanoma ip, median survival T/C
Assay: NCI In Vivo Anticancer Drug Screen. Data for tumor model B16 Melanoma (intraperitoneal) in B6D2F1 (BDF1) mice
Conditions: endpoint: median survival time, higher = longer survival
Procedure, shortened: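 Vehicle-treated animals serve as the reference (C); treated animals (T) are scored for survival or tumor size after tumor transplantation.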

[1] = dose: 12.5 mg/kg/injection, schedule: Q01DX009 (ip), vehicle: suspension in saline
[2] = dose: 50.0 mg/kg/injection, schedule: Q01DX009 (ip), vehicle: suspension in saline
[3] = dose: 100.0 mg/kg/injection, schedule: Q01DX009 (ip), vehicle: saline
[4] = dose: 200.0 mg/kg/injection, schedule: Q01DX009 (ip), vehicle: saline
[5] = dose: 12.5 mg/kg/injection, schedule: Q01DX009 (ip), vehicle: saline with Tween-80
[6] = dose: 3.13 mg/kg/injection, schedule: Q01DX009 (ip), vehicle: saline
[7] = dose: 6.25 mg/kg/injection, schedule: Q01DX009 (ip), vehicle: saline

`O=C(NO)c1ccccc1` was tested, and the T/C [1] was 94 % of control, the T/C (dose: 25.0 mg/kg/injection, schedule: Q01DX009 (ip), vehicle: suspension in saline) was 95 % of control and the T/C (dose: 50.0 mg/kg/injection, schedule: Q01DX009 (ip), vehicle: saline) was 97 % of control. For the same molecule, the T/C [2] was 92 % of control, the T/C (dose: 50.0 mg/kg/injection, schedule: Q04DX003 (ip), vehicle: saline with Tween-80) was 107 % of control and the T/C [3] was 97 % of control. For the same molecule, the T/C (dose: 100.0 mg/kg/injection, schedule: Q01DX009 (ip), vehicle: suspension in saline) was 92 % of control, the T/C (dose: 100.0 mg/kg/injection, schedule: Q04DX003 (ip), vehicle: saline with Tween-80) was 111 % of control and the T/C (dose: 178.0 mg/kg/injection, schedule: Q04DX003 (ip), vehicle: saline with Tween-80) was 102 % of control. For the same molecule, the T/C [4] was 107 % of control, the T/C (dose: 200.0 mg/kg/injection, schedule: Q04DX003 (ip), vehicle: saline with Tween-80) was 108 % of control and the T/C (dose: 400.0 mg/kg/injection, schedule: Q04DX003 (ip), vehicle: saline with Tween-80) was 100 % of control. The T/C (dose: 600.0 mg/kg/injection, schedule: Q04DX003 (ip), vehicle: saline with Tween-80) was 100 % of control.
For `CC1CCC2(OC1)OC1CC3C4CCC5CC(O)CCC5(C)C4CCC3(C)C1C2C` (stereo unspecified), the T/C (dose: 10.0 mg/kg/injection, schedule: Q01DX009 (ip), vehicle: Klucel (hydroxypropylcellulose) (HPC)) was 99 % of control, the T/C (dose: 20.0 mg/kg/injection, schedule: Q01DX009 (ip), vehicle: Klucel (hydroxypropylcellulose) (HPC)) was 97 % of control and the T/C (dose: 40.0 mg/kg/injection, schedule: Q01DX009 (ip), vehicle: Klucel (hydroxypropylcellulose) (HPC)) was 95 % of control.
`CCC1CN2C(=N1)c1ccccc1-c1cc(Cl)ccc12` (stereo unspecified) was tested, and the T/C (dose: 6.25 mg/kg/injection, schedule: Q01DX009 (ip), vehicle: suspension in saline) was 95 % of control, the T/C (dose: 10.0 mg/kg/injection, schedule: Q01DX009 (ip), vehicle: saline) was 94 % of control and the T/C [1] was 109 % of control. For the same molecule, the T/C (dose: 20.0 mg/kg/injection, schedule: Q01DX009 (ip), vehicle: saline) was 118 % of control, the T/C (dose: 40.0 mg/kg/injection, schedule: Q01DX009 (ip), vehicle: saline) was 150 % of control and the T/C [2] was 157 % of control.
`COCC(=O)CC(C)=O` was tested, and the T/C (dose: 75.0 mg/kg/injection, schedule: Q01DX009 (ip), vehicle: Klucel (hydroxypropylcellulose) (HPC)) was 122 % of control, the T/C (dose: 150.0 mg/kg/injection, schedule: Q01DX009 (ip), vehicle: Klucel (hydroxypropylcellulose) (HPC)) was 113 % of control and the T/C (dose: 300.0 mg/kg/injection, schedule: Q01DX009 (ip), vehicle: Klucel (hydroxypropylcellulose) (HPC)) was 105 % of control.
With `CCOC(=O)C(Cc1c[nH]c2cc(N)ccc12)(NC(C)=O)C(=O)OCC` the T/C (dose: 100.0 mg/kg/injection, schedule: Q01DX009 (ip), vehicle: Klucel (hydroxypropylcellulose) (HPC)) was 89 % of control and the T/C (dose: 200.0 mg/kg/injection, schedule: Q01DX009 (ip), vehicle: Klucel (hydroxypropylcellulose) (HPC)) was 87 % of control.
In the case of `Nc1cccc(NC=O)c1`, the T/C [5] was 102 % of control, the T/C (dose: 25.0 mg/kg/injection, schedule: Q01DX009 (ip), vehicle: saline with Tween-80) was 97 % of control and the T/C (dose: 50.0 mg/kg/injection, schedule: Q01DX009 (ip), vehicle: saline with Tween-80) was 97 % of control.
With `CS(=O)(=O)OCCN1CCC2(CC1)SSC1(CCN(CCOS(C)(=O)=O)CC1)S2` the T/C [6] was 106 % of control and the T/C [7] was 106 % of control.
In the case of `CC(C)C[CH2][Pb]([Cl])([CH2]CC(C)C)[CH2]CC(C)C`, the T/C (dose: 0.06 mg/kg/injection, schedule: Q01DX009 (ip), vehicle: saline) was 95 % of control, the T/C (dose: 0.12 mg/kg/injection, schedule: Q01DX009 (ip), vehicle: Klucel (hydroxypropylcellulose) (HPC)) was 100 % of control and the T/C (dose: 0.12 mg/kg/injection, schedule: Q01DX009 (ip), vehicle: saline) was 104 % of control. For the same molecule, the T/C (dose: 0.25 mg/kg/injection, schedule: Q01DX009 (ip), vehicle: saline) was 96 % of control, the T/C (dose: 0.5 mg/kg/injection, schedule: Q01DX009 (ip), vehicle: Klucel (hydroxypropylcellulose) (HPC)) was 93 % of control and the T/C (dose: 0.5 mg/kg/injection, schedule: Q01DX009 (ip), vehicle: saline) was 100 % of control. For the same molecule, the T/C (dose: 1.0 mg/kg/injection, schedule: Q01DX009 (ip), vehicle: Klucel (hydroxypropylcellulose) (HPC)) was 89 % of control, the T/C (dose: 1.0 mg/kg/injection, schedule: Q01DX009 (ip), vehicle: saline) was 104 % of control and the T/C (dose: 2.0 mg/kg/injection, schedule: Q01DX009 (ip), vehicle: saline) was 101 % of control. For the same molecule, the T/C (dose: 4.0 mg/kg/injection, schedule: Q01DX009 (ip), vehicle: saline) was 98 % of control and the T/C (dose: 8.0 mg/kg/injection, schedule: Q01DX009 (ip), vehicle: saline) was 94 % of control.
`COc1cc(C(N)=O)cc(OC)c1O` was tested, and the T/C [3] was 115 % of control, the T/C [4] was 110 % of control and the T/C (dose: 400.0 mg/kg/injection, schedule: Q01DX009 (ip), vehicle: saline) was 118 % of control.
For `CS(=O)(=O)OCCCCOS(C)(=O)=O`, the T/C [6] was 108 % of control, the T/C [7] was 105 % of control and the T/C (dose: 12.5 mg/kg/injection, schedule: Q01DX009 (ip), vehicle: Klucel (hydroxypropylcellulose) (HPC)) was 106 % of control and 107 % of control. For the same molecule, the T/C [5] was 97 % of control and 100 % of control and 102 % of control and the T/C (dose: 12.5 mg/kg/injection, schedule: Q01DX009 (ip), vehicle: saline) was 95 % of control and 105 % of control.
